The record followed here is patent US20240246935A1 (Plexium, Inc., priority 2021, published 2024).

The subject of one experiment is IKZF2 (Helios). Put plainly: IKZF2 reporter degradation assay (HEK 293T IKZF2-mNeonGreen reporter cell line). The format is cell-based, human. Conditions: 1 μM compound, 24 hour incubation, HEK 293T IKZF2-mNeonGreen reporter. An excerpt:
Polycistronic plasmids were constructed for the mammalian expression of fluorescent reporter fusions of human transcription factors IKZF1 (Ikaros), IKZF2 (Helios), and IKZF3 (Aiolos). The respective protein sequences had their C-terminal end joined to a GGGGS linker repeated three times followed by mNeonGreen, P2A sequence, and mScarlet. The DNA sequences of the open reading frames are as follows:
IKZF1, IKZF2, and IKZF3 constructs were cloned into the UCOE Hygromycin expression vectors (Millipore Sigma). Reporter constructs were transfected using cationic lipid reagents into adherent HEK 293T cells and stable integrants were selected by treatment with 200 μg/mL hygromycin B. Clonal populations were obtained from the population of stable integrants either by limiting dilution or fluorescence activated cell sorting.
The clonal stable cell lines were maintained under constant 200 μg/mL hygromycin B selection while being passaged for use in the degradation assays. […] The fluorescence intensity of the IKZF1/2/3-mNeonGreen (FITC channel) and mScarlet (PE channel) reporters were routinely analyzed by flow cytometry to confirm consistent expression levels between experiments.
The IKZF1/IKZF2/IKZF3 degradation assays were carried out by harvesting the HEK 293T reporter cell lines and resuspending the cells in media formulated for reduced background fluorescence (FluoroBrite; Thermo Fisher). The respective cell lines were seeded at a density of 4000 cells/well into black-walled 384-well optical grade assay tissue culture plates. The cells were incubated overnight at 37° C. to allow for attachment to the assay plate. Dilutions of the compounds were prepared in DMSO from 10 mM compound stocks. The assay plates were treated with appropriate concentrations of the compounds by dispensing the DMSO dilutions in quadruplicate wells with an upper limit of 0.5% final DMSO.
After 24 hour incubation with the compounds, the assay plates were imaged on an ImageXpress Pico microscopy system (cells maintained at 37° C. during imaging) to obtain the fluorescent readouts. The assay plates were imaged in the FITC and Tetramethylrhodamine (TRITC) channels to obtain the mNeonGreen fluorescence intensity (reporter degradation data) and mScarlet fluorescence intensity (for cell segmentation). 293T-IKZF1 and 293T-IKZF3 reporter cell lines were imaged with exposures of 500 milliseconds (ms) for both FITC and TRITC channels, while the 293T-IKZF2 reporter cell line was imaged with exposures of 1000 ms for FITC and 1250 ms for TRITC. The resulting data was analyzed with Cell Reporter Xpress software using the 2-channel cell scoring analysis with a “percent positive” readout. The TRITC channel was selected for the “nuclei” segmentation with a threshold of 20 while the FITC channel was selected for the “Marker 1” segmentation and a threshold of 100 for the IKZF1 and IKZF3 reporter lines. […] The minimum segmentation width was set to 6 micrometers and the maximum segmentation width was set to 15 micrometers for all cell lines. The DCs calculations were determined by regression to best fit four-parameter logistic curves using GraphPad Prism.

For experiment [1], the target named is human E3 ligase component cereblon (CRBN) (Homo sapiens (Human), UniProt Q96SW2). Put plainly: Cereblon (CRBN) target engagement, NanoBRET TE Intracellular E3 Ligase Assay in transfected HEK-293T cells. The settings on record: read-out: CRBN Binding EC50. Here is the method: HEK293T cells were harvested ca. 75% confluent with trypsin and plated (500,000 cells/well) in a 6-well tissue culture plate in 2 mL of Dulbecco's Modified Eagle Medium (DMEM)+10% Fetal Bovine Serum (FBS) and incubated overnight at 37° C.
The NanoLuc-CRBN fusion vector (Nluc-CRBN; Promega) contains the coding region of human E3 ligase component cereblon (CRBN) fused to the C-terminus of the NanoLuc luciferase coding region. A mixture of 10 ng Nluc-CRBN and 990 ng DDB1 Expression Vector (Promega) was added to 125 μL Opti-Minimum Essential Medium (Opti-MEM™; Thermo Fisher) along with 2 μL P3000 reagent (Thermo Fisher) in a 1.5 mL epppendorf tube. This solution was added to Lipofectamine 3000 transfection reagent (5 μL; Thermo Fisher) in Opti-MEM (125 μL), mixed well, and incubated for 15 minutes at room temperature. The transfection mixture was added dropwise to cells and incubated overnight at 37° ° C., 5% CO2. Following transfection, cells were washed once with PBS, and trypsin (250 μL) was added and incubated 30-45 sec to dislodge cells. Complete media (2 mL) was added to resuspend cells to form a single cell suspension. Cells were centrifuged at 320×g for 5 min at room temperature, the supernatant was removed, and the cell pellet resuspended in Opti-MEM (3 mL; wash step repeated×2). After final resuspension in 5 mL Opti-MEM, cells were counted and resuspended at 200,000 cells/mL in Opti-MEM.
Cereblon target engagement was monitored by Bioluminescence Resonance Energy Transfer (BRET) in transfected HEK-293T cells using the NanoBRET TE Intracellular E3 Ligase Assay (Promega). Briefly, 384-well plates (white opaque plates, Corning 3574, low binding surface) were seeded with transfected HEK-293T cells (38 μL/well). 2 μL of 10 μM CRBN tracer (diluted 1:5 in Tracer Dilution Buffer) was added to each well. Plates were centrifuged at 320×g for 1 min at room temperature. Test compounds were added in a 11-point dilution series (typically 10 μM to […]) using a TECAN D300e Digital Dispenser. Plates were shaken for 2 minutes on a microplate shaker to mix compounds. Plates were centrifuged at 320×g for 1 min at room temperature, and subsequently incubated for 2 hours at 37° C.
After incubation, plates were allowed to cool to room temperature for 15 minutes. 20 μL of 3× Complete NanoBRET™ Nano-Glo® Substrate plus Inhibitor Solution (Promega, 1:166 Substrate and 1:500 dilution of Extracellular NanoLuc® Inhibitor diluted in Opti-MEM) were added to each well. Plates were incubated with shaking at room temperature for 3 minutes covered with foil. Plates were read on a CLARIOstar microplate reader (BMG LabTech), measuring at 450 nm (donor emission) and 610 nm (acceptor emission). The IC50 values were determined by regression to best fit four-parameter logistic curves using GraphPad Prism.

Structures are written as SMILES. Where only a bound is given, the exact number is not on record here.

Sequence of human E3 ligase component cereblon (CRBN) (Q96SW2 whole entry, the tested form may be a part): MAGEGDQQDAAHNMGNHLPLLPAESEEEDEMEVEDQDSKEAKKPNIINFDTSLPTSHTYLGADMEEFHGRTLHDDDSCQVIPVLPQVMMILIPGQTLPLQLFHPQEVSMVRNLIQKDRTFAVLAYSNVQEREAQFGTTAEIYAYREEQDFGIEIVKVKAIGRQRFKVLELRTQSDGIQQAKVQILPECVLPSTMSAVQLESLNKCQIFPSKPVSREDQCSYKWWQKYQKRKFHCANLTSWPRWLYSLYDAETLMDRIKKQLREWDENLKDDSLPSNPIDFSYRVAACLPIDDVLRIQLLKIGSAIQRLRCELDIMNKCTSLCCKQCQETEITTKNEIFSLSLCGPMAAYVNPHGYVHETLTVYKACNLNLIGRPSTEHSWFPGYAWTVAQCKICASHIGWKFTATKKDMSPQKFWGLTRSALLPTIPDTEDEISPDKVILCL
Sequence of human E3 ligase component cereblon (CRBN) (Q16531 whole entry partner, the tested form may be a part): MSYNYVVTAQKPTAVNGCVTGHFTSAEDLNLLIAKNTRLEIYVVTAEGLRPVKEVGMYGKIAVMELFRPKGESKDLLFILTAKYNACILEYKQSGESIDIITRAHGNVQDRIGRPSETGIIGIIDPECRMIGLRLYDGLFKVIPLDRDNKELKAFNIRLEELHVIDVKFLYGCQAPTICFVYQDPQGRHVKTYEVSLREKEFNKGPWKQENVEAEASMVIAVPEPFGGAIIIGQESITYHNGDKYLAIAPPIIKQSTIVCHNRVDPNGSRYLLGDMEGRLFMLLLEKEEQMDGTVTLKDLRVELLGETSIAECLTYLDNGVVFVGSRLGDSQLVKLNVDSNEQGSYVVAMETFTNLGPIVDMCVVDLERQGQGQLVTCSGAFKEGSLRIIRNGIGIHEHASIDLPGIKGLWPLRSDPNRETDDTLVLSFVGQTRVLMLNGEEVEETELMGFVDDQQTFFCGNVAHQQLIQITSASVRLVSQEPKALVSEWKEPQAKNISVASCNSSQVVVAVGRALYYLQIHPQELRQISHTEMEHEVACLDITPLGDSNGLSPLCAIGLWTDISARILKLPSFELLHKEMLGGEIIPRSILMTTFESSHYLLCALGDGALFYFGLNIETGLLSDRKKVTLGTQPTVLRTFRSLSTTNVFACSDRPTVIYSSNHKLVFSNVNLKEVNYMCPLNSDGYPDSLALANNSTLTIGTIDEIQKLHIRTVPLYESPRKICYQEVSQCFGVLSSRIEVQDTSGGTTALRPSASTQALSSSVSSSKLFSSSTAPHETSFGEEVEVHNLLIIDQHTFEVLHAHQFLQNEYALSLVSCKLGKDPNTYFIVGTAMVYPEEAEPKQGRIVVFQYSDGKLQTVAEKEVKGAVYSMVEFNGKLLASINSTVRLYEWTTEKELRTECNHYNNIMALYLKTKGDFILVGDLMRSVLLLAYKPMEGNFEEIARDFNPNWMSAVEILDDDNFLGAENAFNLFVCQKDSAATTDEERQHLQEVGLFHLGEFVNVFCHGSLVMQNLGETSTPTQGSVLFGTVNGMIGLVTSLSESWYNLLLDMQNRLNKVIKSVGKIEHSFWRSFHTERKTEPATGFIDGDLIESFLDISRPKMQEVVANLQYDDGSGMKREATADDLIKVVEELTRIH

Turning to `O=C1CCC(N2Cc3cc(O[C@H]4CCCC[C@H]4N4CC(c5cccc(C(F)(F)F)c5)C4)ccc3C2=O)C(=O)N1` (mixture of isomers) [Compound 63, Rac-3-(1-oxo-5-(((cis)-2-(3-(3-(trifluoromethyl)phenyl)azetidin-1-yl)cyclohexyl)oxy)isoindolin-2-yl)piperidine-2,6-dione], the “IKZF2 % Degradation @ 1 μM” value with IKZF2 (Helios) stood at 44.9%. Moreover, in experiment [1], the EC50 worked out at 15 nM.
For the compound `N#Cc1cc(Cl)ccc1C1CN([C@H]2CCC[C@H]2Oc2ccc3c(c2)CN(C2CCC(=O)NC2=O)C3=O)C1` (mixture of isomers) [Compound 84, Rac-5-chloro-2-(1-((cis)-2-((2-(2,6-dioxopiperidin-3-yl)-1-oxoisoindolin-5-yl)oxy)cyclopentyl)azetidin-3-yl)benzonitrile], the “IKZF2 % Degradation @ 1 μM” value with IKZF2 (Helios) was below 15%. Besides, the EC50 in experiment [1] turned out to be 14 nM.
The like results for `O=C1CCC(N2Cc3cc(OC4CCCCC4N4CC(c5ccccc5C(F)(F)F)C4)ccc3C2=O)C(=O)N1` (stereo not drawn) [Compound 69, 3-(1-oxo-5-((2-(3-(2-(trifluoromethyl)phenyl)azetidin-1-yl)cyclohexyl)oxy)isoindolin-2-yl)piperidine-2,6-dione] were, in that order, below 15% and 25 nM.
The like results for `O=C1CCC(N2Cc3cc(O[C@H]4CCCC[C@@H]4N4CC(c5ccc(C(F)(F)F)cc5)C4)ccc3C2=O)C(=O)N1` (stereo partly drawn) [Compound 58, 3-(1-oxo-5-(((1S,2S)-2-(3-(4-(trifluoromethyl)phenyl)azetidin-1-yl)cyclohexyl)oxy)isoindolin-2-yl)piperidine-2,6-dione] were, in that order, 85.8% and 71 nM.
As to `O=C1CCC(N2Cc3cc(O[C@H]4CCCC[C@@H]4N4CC(c5cccc(N6CCOCC6)c5)C4)ccc3C2=O)C(=O)N1` (stereo partly drawn) [Compound 112, 3-(5-(((1S,2S)-2-(3-(3-morpholinophenyl)azetidin-1-yl)cyclohexyl)oxy)-1-oxoisoindolin-2-yl)piperidine-2,6-dione], in the experiment with IKZF2 (Helios), the “IKZF2 % Degradation @ 1 μM” value came out at 72.6%. Moreover, the 50% effective concentration (EC50) in experiment [1] turned out to be 25 nM.
The like results for `N#Cc1cccc(C2CN([C@H]3CCCC[C@@H]3Oc3ccc4c(c3)CN(C3CCC(=O)NC3=O)C4=O)C2)c1` (stereo partly drawn) [Compound 113, 3-(1-((1S,2S)-2-((2-(2,6-dioxopiperidin-3-yl)-1-oxoisoindolin-5-yl)oxy)cyclohexyl)azetidin-3-yl)benzonitrile] were, in that order, 73.7% and 13 nM.
For the compound `O=C1CCC(N2Cc3cc(O[C@H]4CCCC[C@@H]4N4CC(c5ccc(OC(F)F)cc5)C4)ccc3C2=O)C(=O)N1` (stereo partly drawn) [Compound 81, 3-(5-(((1S,2S)-2-(3-(4-(difluoromethoxy)phenyl)azetidin-1-yl)cyclohexyl)oxy)-1-oxoisoindolin-2-yl)piperidine-2,6-dione], the “IKZF2 % Degradation @ 1 μM” value with IKZF2 (Helios) worked out at 77.6%. The EC50 in experiment [1] was found to be 9 nM.
The like results for `O=C1CCC(N2Cc3cc(O[C@@H]4CCCC[C@@H]4N4CC(c5ccc(C(F)(F)F)cc5)C4)ccc3C2=O)C(=O)N1` (stereo partly drawn) [Compound 59, 3-(1-oxo-5-(((1R,2S)-2-(3-(4-(trifluoromethyl)phenyl)azetidin-1-yl)cyclohexyl)oxy)isoindolin-2-yl)piperidine-2,6-dione] were, in that order, 32.7% and 11 nM.
The like results for `N#Cc1ccc(C2CN([C@H]3CCCC[C@@H]3Oc3ccc4c(c3)CN(C3CCC(=O)NC3=O)C4=O)C2)c(Cl)c1` (single isomer, unassigned) [Compound 47] were, in that order, 86.7% and 5 nM.
The like results for `O=C1CCC(N2Cc3cc(O[C@H]4CCCC[C@@H]4N4CCC(c5ccccc5)CC4)ccc3C2=O)C(=O)N1` (stereo partly drawn) [Compound 79, 3-(1-oxo-5-(((1S,2S)-2-(4-phenylpiperidin-1-yl)cyclohexyl)oxy)isoindolin-2-yl)piperidine-2,6-dione] were, in that order, below 15% and 12 nM.
`N#Cc1cc(F)ccc1C1CN([C@H]2CCCC[C@@H]2Oc2ccc3c(c2)CN(C2CCC(=O)NC2=O)C3=O)C1` (single isomer, unassigned) [Compound 44]: the “IKZF2 % Degradation @ 1 μM” value in the experiment with IKZF2 (Helios) is recorded as 85.6%. Further, the EC50 in experiment [1] came to 65 nM.
The like results for `O=C1CCC(N2Cc3cc(O[C@H]4CCCC[C@H]4N4CCC4c4ccccc4)ccc3C2=O)C(=O)N1` (stereo partly drawn) [Compound 56, 3-(1-oxo-5-(((1S,2R)-2-(2-phenylazetidin-1-yl)cyclohexyl)oxy)isoindolin-2-yl)piperidine-2,6-dione] were, in that order, below 15% and 239 nM.
The like results for `O=C1CCC(N2Cc3cc(O[C@H]4CCCC[C@@H]4N4CC(c5ccc(F)cc5)C4)ccc3C2=O)C(=O)N1` (stereo partly drawn) [Compound 123, 3-(5-(((1S,2S)-2-(3-(4-fluorophenyl)azetidin-1-yl)cyclohexyl)oxy)-1-oxoisoindolin-2-yl)piperidine-2,6-dione] were, in that order, 74.4% and 11 nM.
The like results for `O=C1CCC(N2Cc3cc(OC4CCCCC4N4CC(c5cccc(OC(F)(F)F)c5)C4)ccc3C2=O)C(=O)N1` (stereo not drawn) [Compound 67, 3-(1-oxo-5-((2-(3-(3-(trifluoromethoxy)phenyl)azetidin-1-yl)cyclohexyl)oxy)isoindolin-2-yl)piperidine-2,6-dione] were, in that order, 37.8% and 17 nM.
With `N#Cc1ccc(C2CN([C@H]3CCCC[C@@H]3Oc3ccc4c(c3)CN(C3CCC(=O)NC3=O)C4=O)C2)c(Cl)c1` (single isomer, unassigned) [Compound 48], the “IKZF2 % Degradation @ 1 μM” value in the experiment with IKZF2 (Helios) turned out to be 78.9%. The EC50 in experiment [1] was 45 nM.
The like results for `N#Cc1cc(Cl)ccc1C1CN([C@H]2CCCC[C@@H]2Oc2ccc3c(c2)CN(C2CCC(=O)NC2=O)C3=O)C1` (mixture of isomers) [Compound 99, Rac-5-chloro-2-(1-((trans)-2-((2-(2,6-dioxopiperidin-3-yl)-1-oxoisoindolin-5-yl)oxy)cyclohexyl)azetidin-3-yl)benzonitrile] were, in that order, 80.2% and 44 nM.
As for `N#Cc1ccc(C2CN([C@H]3CCCC[C@H]3Oc3ccc4c(c3)CN(C35CC(C3)C(=O)NC5=O)C4=O)C2)cc1` (racemic) [Compound 92, Rac-4-(1-((cis)-2-((2-(2,4-dioxo-3-azabicyclo[3.1.1]heptan-1-yl)-1-oxoisoindolin-5-yl)oxy)cyclohexyl)azetidin-3-yl)benzonitrile], the EC50 in experiment [1] was above 10000 nM.
